Source: ChEMBL document CHEMBL3046894, “Synthesis and Herbicidal Activity of Pyrimidinyl Salicylic and Thiosalicylic Acids” (J Pestic Sci, 1996)
Calls of active or inactive are those of the source. No cut-off for these calls is given here.

What was measured:
[1] = system: Cyperus iria; assay: Post-emergence herbicidal activity against Cyperus iria assessed as growth inhibition at 25 g a.i/10 a applied 11 days after germination as foliar spray; assay type: functional, organism-based
[2] = system: Echinochloa crus-galli; assay: Post-emergence herbicidal activity against Echinochloa crus-galli (barnyard grass) assessed as mortality per 10 acre; assay type: functional
[3] = Post-emergence phytotoxicity against Zea mays (maize) assessed as mortality at 1.6 g a.i/10 a applied 11 days after germination as foliar spray; assay type: organism-based; conditions: in vivo, 1.6 g a.i/10 a
[4] = system: Ipomoea lacunosa; assay: Post-emergence herbicidal activity against Ipomoea lacunosa assessed as mortality per 10 acre; assay type: functional
[5] = (§1) Pre-emergence phytotoxicity against Zea mays (maize) assessed as mortality at 1.6 g a.i/10 a; assay type: organism-based; conditions: in vivo, 1.6 g a.i/10 a, read-out: mortality
[6] = system: Amaranthus retroflexus; assay: Pre-emergence herbicidal activity against Amaranthus retroflexus assessed as mortality per 10 acre; assay type: functional
[7] = system: Gossypium hirsutum; assay: (§2) Post-emergence phytotoxicity against Gossypium hirsutum (cotton) assessed as mortality at 6.3 g a.i/10 a applied 11 days after germination as foliar spray; assay type: organism-based; conditions: in vivo, other, 264 h
[8] = system: Digitaria sanguinalis; assay: Post-emergence herbicidal activity against Digitaria sanguinalis (hairy crabgrass) assessed as growth inhibition at 25 g a.i/10 a applied 11 days after germination as foliar spray; assay type: functional, organism-based
[9] = system: Ipomoea lacunosa; assay: Pre-emergence herbicidal activity against Ipomoea lacunosa assessed as mortality at 6.3 g a.i/10 a; assay type: functional; conditions: Ipomoea lacunosa, pre-emergence
[10] = system: Gossypium hirsutum; assay: Pre-emergence phytotoxicity against Gossypium hirsutum (cotton) assessed as mortality at 6.3 g a.i/10 a; assay type: organism-based; conditions: in vivo, other
[11] = system: Glycine max; assay: (§3) Pre-emergence phytotoxicity against Glycine max (soybean) assessed as mortality at 6.3 g a.i/10 a; assay type: organism-based; conditions: in vivo, other
[12] = system: Digitaria sanguinalis; assay: Pre-emergence herbicidal activity against Digitaria sanguinalis (hairy crabgrass) assessed as growth inhibition at 25 g a.i/10 a; assay type: functional, organism-based
[13] = system: Cyperus iria; assay: Pre-emergence herbicidal activity against Cyperus iria assessed as growth inhibition at 25 g a.i/10 a; assay type: functional, organism-based
[14] = system: Amaranthus retroflexus; assay: Post-emergence herbicidal activity against Amaranthus retroflexus assessed as growth inhibition at 25 g a.i/10 a applied 11 days after germination as foliar spray; assay type: functional, organism-based
[15] = system: Echinochloa crus-galli; assay: Pre-emergence herbicidal activity against Echinochloa crus-galli (barnyard grass) assessed as mortality at 6.3 g a.i/10 a; assay type: functional; conditions: Echinochloa crus-galli, pre-emergence
[16] = system: Persicaria nodosa; assay: Pre-emergence herbicidal activity against Persicaria nodosa assessed as growth inhibition at 25 g a.i/10 a; assay type: functional, organism-based
[17] = system: Echinochloa crus-galli; assay: Post-emergence herbicidal activity against Echinochloa crus-galli (barnyard grass) assessed as growth inhibition at 25 g a.i/10 a applied 11 days after germination as foliar spray; assay type: functional, organism-based
[18] = system: Glycine max; assay: Pre-emergence phytotoxicity against Glycine max (soybean) assessed as mortality at 1.6 g a.i/10 a; assay type: organism-based; conditions: in vivo, other
[19] = system: Ipomoea lacunosa; assay: Pre-emergence herbicidal activity against Ipomoea lacunosa assessed as mortality at 1.6 g a.i/10 a; assay type: functional; conditions: Ipomoea lacunosa, pre-emergence
[20] = system: Gossypium hirsutum; assay: Post-emergence phytotoxicity against Gossypium hirsutum (cotton) assessed as mortality at 1.6 g a.i/10 a applied 11 days after germination as foliar spray; assay type: organism-based; conditions: in vivo, other, 264 h
[21] = system: Persicaria nodosa; assay: Post-emergence herbicidal activity against Persicaria nodosa assessed as mortality per 10 acre; assay type: functional
[22] = system: Xanthium strumarium; assay: Post-emergence herbicidal activity against Xanthium strumarium (cocklebur) assessed as mortality per 10 acre; assay type: functional
[23] = system: Ipomoea lacunosa; assay: Pre-emergence herbicidal activity against Ipomoea lacunosa assessed as mortality per 10 acre; assay type: functional
[24] = system: Chenopodium album; assay: Pre-emergence herbicidal activity against Chenopodium album assessed as growth inhibition at 25 g a.i/10 a; assay type: functional, organism-based
[25] = system: Xanthium strumarium; assay: Pre-emergence herbicidal activity against Xanthium strumarium (cocklebur) assessed as mortality per 10 acre; assay type: functional
[26] = system: Persicaria nodosa; assay: Pre-emergence herbicidal activity against Persicaria nodosa assessed as mortality per 10 acre; assay type: functional
[27] = system: Echinochloa crus-galli; assay: Post-emergence herbicidal activity against Echinochloa crus-galli (barnyard grass) assessed as mortality at 6.3 g a.i/10 a applied 11 days after germination as foliar spray; assay type: functional; conditions: 264 h
[28] = system: Ipomoea lacunosa; assay: Post-emergence herbicidal activity against Ipomoea lacunosa assessed as mortality at 1.6 g a.i/10 a applied 11 days after germination as foliar spray; assay type: functional; conditions: 264 h
[29] = system: Chenopodium album; assay: Post-emergence herbicidal activity against Chenopodium album assessed as growth inhibition at 25 g a.i/10 a applied 11 days after germination as foliar spray; assay type: functional, organism-based
[30] = system: Amaranthus retroflexus; assay: Post-emergence herbicidal activity against Amaranthus retroflexus assessed as mortality per 10 acre; assay type: functional
[31] = system: Gossypium hirsutum; assay: Pre-emergence phytotoxicity against Gossypium hirsutum (cotton) assessed as mortality per 10 acre; assay type: organism-based; conditions: in vivo
[32] = system: Echinochloa crus-galli; assay: Pre-emergence herbicidal activity against Echinochloa crus-galli (barnyard grass) assessed as mortality per 10 acre; assay type: functional
[33] = Post-emergence phytotoxicity against Glycine max (soybean) assessed as mortality at 1.6 g a.i/10 a applied 11 days after germination as foliar spray; assay type: organism-based; conditions: in vivo, 1.6 g a.i/10 a
[34] = system: Xanthium strumarium; assay: Post-emergence herbicidal activity against Xanthium strumarium (cocklebur) assessed as mortality at 1.6 g a.i/10 a applied 11 days after germination as foliar spray; assay type: functional; conditions: 264 h
[35] = system: Abutilon theophrasti; assay: Post-emergence herbicidal activity against Abutilon theophrasti (velvetleaf) assessed as mortality at 6.3 g a.i/10 a applied 11 days after germination as foliar spray; assay type: functional; conditions: 264 h
[36] = system: Gossypium hirsutum; assay: Post-emergence phytotoxicity against Gossypium hirsutum (cotton) assessed as mortality per 10 acre; assay type: organism-based; conditions: in vivo
[37] = system: Amaranthus retroflexus; assay: Pre-emergence herbicidal activity against Amaranthus retroflexus assessed as growth inhibition at 25 g a.i/10 a; assay type: functional, organism-based
[38] = system: Echinochloa crus-galli; assay: Pre-emergence herbicidal activity against Echinochloa crus-galli (barnyard grass) assessed as growth inhibition at 25 g a.i/10 a; assay type: functional, organism-based
[39] = system: Persicaria nodosa; assay: Post-emergence herbicidal activity against Persicaria nodosa assessed as growth inhibition at 25 g a.i/10 a applied 11 days after germination as foliar spray; assay type: functional, organism-based
[40] = system: Xanthium strumarium; assay: Pre-emergence herbicidal activity against Xanthium strumarium (cocklebur) assessed as mortality at 1.6 g a.i/10 a; assay type: functional; conditions: Xanthium strumarium, pre-emergence
[41] = system: Echinochloa crus-galli; assay: Post-emergence herbicidal activity against Echinochloa crus-galli (barnyard grass) assessed as mortality at 1.6 g a.i/10 a applied 11 days after germination as foliar spray; assay type: functional; conditions: 264 h
[42] = system: Abutilon theophrasti; assay: Pre-emergence herbicidal activity against Abutilon theophrasti (velvetleaf) assessed as mortality at 6.3 g a.i/10 a; assay type: functional; conditions: Abutilon theophrasti, pre-emergence
[43] = as §3; assay type: organism-based; conditions: in vivo, 6.3 g a.i/10 a, read-out: mortality
[44] = system: Abutilon theophrasti; assay: Post-emergence herbicidal activity against Abutilon theophrasti (velvetleaf) assessed as mortality at 1.6 g a.i/10 a applied 11 days after germination as foliar spray; assay type: functional; conditions: 264 h
[45] = system: Gossypium hirsutum; assay: Pre-emergence phytotoxicity against Gossypium hirsutum (cotton) assessed as mortality at 1.6 g a.i/10 a; assay type: organism-based; conditions: in vivo, other
[46] = system: Xanthium strumarium; assay: Pre-emergence herbicidal activity against Xanthium strumarium (cocklebur) assessed as mortality at 6.3 g a.i/10 a; assay type: functional; conditions: Xanthium strumarium, pre-emergence
[47] = system: Zea mays; assay: as §1; assay type: organism-based; conditions: in vivo, other
[48] = as §2; assay type: organism-based; conditions: in vivo, 6.3 g a.i/10 a

SMILES | growth inhibition (GI) [1] | mortality at 264 h [3] [%] | growth inhibition (GI) [8] | Activity [10] | growth inhibition (GI) [12] | growth inhibition (GI) [13] | growth inhibition (GI) [14] | mortality at 63 g/ha [15] [%] | growth inhibition (GI) [16] | growth inhibition (GI) [17] | Activity [18] | Activity [20] | growth inhibition (GI) [24] | mortality at 63 g/ha [27] [%] | growth inhibition (GI) [29] | mortality at 264 h [33] [%] | mortality at 63 g/ha [35] [%] | growth inhibition (GI) [37] | growth inhibition (GI) [38] | growth inhibition (GI) [39] | further results
COc1cc(OC)nc(Oc2cccc(C)c2C(=O)O)n1 | Active | > 90 | Active | Non-toxic | Active | Active | Active | > 90 | Active | Active | Toxic | Non-toxic | Active | > 90 | Active | > 90 | > 90 | Active | Active | Active | ED90 [2]: inactive; ED90 [4]: 100 gAi; mortality [5]: > 90%; ED90 [6]: inactive; Activity [7]: Non-toxic; mortality at 63 g/ha [9]: < 5%; Activity [11]: Toxic; mortality at 16 g/ha [19]: < 5%; ED90 [21]: 0.4 gAi; ED90 [22]: 25 gAi; ED90 [23]: >100 gAi; ED90 [25]: >100 gAi; ED90 [26]: Active; mortality at 16 g/ha [28]: < 5%; ED90 [30]: 0.2 gAi; ED20 [31]: Toxic; ED90 [32]: Active; mortality at 16 g/ha [34]: < 5%; ED20 [36]: 0.4 gAi; mortality at 16 g/ha [40]: < 5%
COc1cc(OC)nc(Oc2cccc(Cl)c2C(=O)O)n1 | Active | > 90 | Active | Non-toxic | Active | Active | Active | > 90 | Active | Active | Toxic | Toxic | Active | > 90 | Active | > 90 | > 90 | Active | Active | Active | mortality at 16 g/ha [41]: > 90%; ED90 [2]: 1.5 gAi; ED90 [4]: 0.8 gAi; mortality [5]: > 90%; ED90 [6]: 0.4 gAi; mortality at 63 g/ha [42]: > 90%; Activity [7]: Toxic; mortality [43]: > 90%; ED90 [21]: 0.2 gAi; ED90 [22]: 1.5 gAi; mortality at 16 g/ha [44]: > 90%; ED90 [23]: 25 gAi; ED90 [25]: 25 gAi; ED90 [26]: 0.4 gAi; ED90 [30]: 0.2 gAi; ED20 [31]: Toxic; ED90 [32]: inactive; ED20 [36]: 0.2 gAi; Activity [45]: Non-toxic
COc1cc(OC)nc(Oc2cccc(OC)c2C(=O)O)n1 | Active | > 90 | Active | Non-toxic | Active | Active | Active | > 90 | Active | Active | Non-toxic | Toxic | Active | > 90 | Active | > 90 | > 90 | Active | Active | Active | mortality at 63 g/ha [46]: < 5%; Activity [47]: Toxic; mortality at 63 g/ha [42]: > 90%; mortality at 264 h [48]: > 90%; mortality at 63 g/ha [9]: < 5%; mortality [43]: > 90%; mortality at 16 g/ha [19]: < 5%; mortality at 16 g/ha [44]: > 90%; mortality at 16 g/ha [34]: < 5%; mortality at 16 g/ha [40]: < 5%
